Reference: the Kinase Knowledgebase extract (Sharma et al. 2016)

Target: CDK2 (UniProt P24941)
Assay: Enzyme Assay
Settings: not given

Compound | IC50
O=C1Nc2ccc(S(=O)(=O)N3CCCc4ccccc43)cc2/C1=C/c1[nH]cc2c1CCOC2=O | 550 nM
CN(c1cccc(Cl)c1)S(=O)(=O)c1ccc2c(c1)/C(=C/c1[nH]cc3c1CCOC3=O)C(=O)N2 | 9950 nM
O=C1Nc2ccc(S(=O)(=O)Nc3ccccc3)cc2/C1=C/c1[nH]cc2c1CCOC2=O | 40 nM
O=C1Nc2ccc(F)cc2/C1=C/c1[nH]cc2c1CCNC2=O | 300 nM
CN(C)C(=O)c1ccc2c(c1)/C(=C/c1[nH]cc3c1CCNC3=O)C(=O)N2 | 90 nM
Cc1c(Br)ccc2c1/C(=C/c1[nH]cc3c1CCOC3=O)C(=O)N2 | 160 nM
O=C1Nc2ccc(C(=O)O)cc2/C1=C/c1[nH]cc2c1CCOC2=O | 4 nM
O=C1Nc2cc(-c3ccccc3)ccc2/C1=C/c1[nH]cc2c1CCNC2=O | 6010 nM
O=C1Nc2cc(-c3cccc(C(=O)O)c3)ccc2/C1=C/c1[nH]cc2c1CCOC2=O | 5360 nM
O=C1Nc2ccc(F)cc2/C1=C/c1[nH]cc2c1CCOC2=O | 80 nM
CNS(=O)(=O)c1ccc2c(c1)/C(=C/c1[nH]cc3c1CCOC3=O)C(=O)N2 | 5 nM
O=C1Nc2cc(Cl)ccc2/C1=C/c1[nH]cc2c1CCNC2=O | 7230 nM
O=C1Nc2c(Cl)cccc2/C1=C/c1[nH]cc2c1CCOC2=O | 2580 nM
CN(C)S(=O)(=O)c1ccc2c(c1)/C(=C/c1[nH]cc3c1CCNC3=O)C(=O)N2 | 100 nM
NS(=O)(=O)c1ccc2c(c1)/C(=C/c1[nH]cc3c1CCOC3=O)C(=O)N2 | 10 nM
O=C1Nc2ccc(Br)cc2/C1=C/c1[nH]cc2c1CCNC2=O | 530 nM
O=C1Nc2ccc(-c3ccccc3)cc2/C1=C/c1[nH]cc2c1CCNC2=O | 3200 nM
O=C1Nc2cc(Cl)ccc2/C1=C/c1[nH]cc2c1CCOC2=O | 410 nM
COc1ccc2c(c1)/C(=C/c1[nH]cc3c1CCNC3=O)C(=O)N2 | 290 nM
COc1cccc(-c2ccc3c(c2)NC(=O)/C3=C\c2[nH]cc3c2CCOC3=O)c1 | > 10000 nM
COc1ccccc1-c1ccc2c(c1)NC(=O)/C2=C\c1[nH]cc2c1CCOC2=O | > 10000 nM
O=C1Nc2cc(-c3ccccc3)ccc2/C1=C/c1[nH]cc2c1CCOC2=O | > 10000 nM
COc1ccc2c(c1)NC(=O)/C2=C\c1[nH]cc2c1CCOC2=O | 1550 nM
O=C1Nc2ccc(S(=O)(=O)N3CCc4cc(Br)ccc43)cc2/C1=C/c1[nH]cc2c1CCOC2=O | 2860 nM
O=C1Nc2cc(Br)ccc2/C1=C/c1[nH]cc2c1CCOC2=O | 970 nM
O=C1Nc2ccc(Br)cc2/C1=C/c1[nH]cc2c1CCOC2=O | 240 nM

Compound | IC50
O=C1Nc2cc(-c3cccnc3)ccc2/C1=C/c1[nH]cc2c1CCOC2=O | 5690 nM
O=C1Nc2ccc(C(=O)N3CCCC3)cc2/C1=C/c1[nH]cc2c1CCNC2=O | 70 nM
O=C1Nc2ccc(Cl)cc2/C1=C/c1[nH]cc2c1CCOC2=O | 90 nM
O=C1Nc2ccc(S(=O)(=O)N3CCc4ccccc4C3)cc2/C1=C/c1[nH]cc2c1CCOC2=O | 730 nM
O=C1Nc2cc(F)ccc2/C1=C/c1[nH]cc2c1CCOC2=O | 360 nM
Cc1c(Cl)ccc2c1/C(=C/c1[nH]cc3c1CCOC3=O)C(=O)N2 | 310 nM
COc1ccc2c(c1)/C(=C/c1[nH]cc3c1CCOC3=O)C(=O)N2 | 40 nM
CC(=O)Nc1ccc2c(c1)NC(=O)/C2=C\c1[nH]cc2c1CCOC2=O | 7860 nM
CN(C)S(=O)(=O)c1ccc2c(c1)/C(=C/c1[nH]cc3c1CCOC3=O)C(=O)N2 | 30 nM
CNS(=O)(=O)c1ccc2c(c1C)/C(=C/c1[nH]cc3c1CCOC3=O)C(=O)N2 | 5.5 nM
O=C1Nc2cc(-c3ccc(F)cc3)ccc2/C1=C/c1[nH]cc2c1CCOC2=O | 1060 nM
O=C1Nc2cccc(CCO)c2/C1=C/c1[nH]cc2c1CCOC2=O | 30 nM
O=C1Nc2ccc3c(c2/C1=C/c1[nH]cc2c1CCOC2=O)CCOS3(=O)=O | 130 nM
O=C1Nc2ccc(S(=O)(=O)Nc3cccc(Cl)c3)cc2/C1=C/c1[nH]cc2c1CCOC2=O | 490 nM
NS(=O)(=O)c1ccc2c(c1)/C(=C/c1[nH]cc3c1CCNC3=O)C(=O)N2 | < 5 nM
O=C1Nc2ccc(-c3cccc(C(=O)O)c3)cc2/C1=C/c1[nH]cc2c1CCOC2=O | 6710 nM
CNS(=O)(=O)c1ccc2c(c1)/C(=C/c1[nH]cc3c1CCNC3=O)C(=O)N2 | 9 nM
O=C1Nc2cccc(CCO)c2/C1=C/c1[nH]cc2c1CCNC2=O | 450 nM
O=C1Nc2ccc(-c3ccccc3)cc2/C1=C/c1[nH]cc2c1CCOC2=O | 3840 nM
O=C1Nc2ccc(C(=O)N3CCOCC3)cc2/C1=C/c1[nH]cc2c1CCNC2=O | 560 nM
O=C1Nc2cc(Br)ccc2/C1=C/c1[nH]cc2c1CCNC2=O | > 10000 nM
CC(C)NS(=O)(=O)c1ccc2c(c1)/C(=C/c1[nH]cc3c1CCOC3=O)C(=O)N2 | 60 nM
COc1ccc(-c2ccc3c(c2)NC(=O)/C3=C\c2[nH]cc3c2CCOC3=O)cc1 | 1000 nM
Cc1cccc2c1/C(=C/c1[nH]cc3c1CCOC3=O)C(=O)N2 | 270 nM
O=C1Nc2cc(C(=O)O)ccc2/C1=C/c1[nH]cc2c1CCOC2=O | 1080 nM
O=C1Nc2ccc(S(=O)(=O)N3CCc4ccccc43)cc2/C1=C/c1[nH]cc2c1CCOC2=O | 350 nM

Target: EGFR (mouse) (UniProt P00533)
Assay: not given
Settings: 3t3

Compound | IC50
O=C1Nc2ccc(S(=O)(=O)N3CCCc4ccccc43)cc2/C1=C/c1[nH]cc2c1CCOC2=O | > 20000 nM
CN(c1cccc(Cl)c1)S(=O)(=O)c1ccc2c(c1)/C(=C/c1[nH]cc3c1CCOC3=O)C(=O)N2 | > 20000 nM
O=C1Nc2ccc(S(=O)(=O)Nc3ccccc3)cc2/C1=C/c1[nH]cc2c1CCOC2=O | > 20000 nM
O=C1Nc2ccc(F)cc2/C1=C/c1[nH]cc2c1CCNC2=O | > 20000 nM
CN(C)C(=O)c1ccc2c(c1)/C(=C/c1[nH]cc3c1CCNC3=O)C(=O)N2 | > 20000 nM
Cc1c(Br)ccc2c1/C(=C/c1[nH]cc3c1CCOC3=O)C(=O)N2 | > 20000 nM
O=C1Nc2ccc(C(=O)O)cc2/C1=C/c1[nH]cc2c1CCOC2=O | > 20000 nM
O=C1Nc2cc(-c3ccccc3)ccc2/C1=C/c1[nH]cc2c1CCNC2=O | > 20000 nM
O=C1Nc2cc(-c3cccc(C(=O)O)c3)ccc2/C1=C/c1[nH]cc2c1CCOC2=O | 18700 nM
O=C1Nc2ccc(F)cc2/C1=C/c1[nH]cc2c1CCOC2=O | > 20000 nM
CNS(=O)(=O)c1ccc2c(c1)/C(=C/c1[nH]cc3c1CCOC3=O)C(=O)N2 | > 20000 nM
O=C1Nc2cc(Cl)ccc2/C1=C/c1[nH]cc2c1CCNC2=O | > 20000 nM
O=C1Nc2c(Cl)cccc2/C1=C/c1[nH]cc2c1CCOC2=O | > 20000 nM
CN(C)S(=O)(=O)c1ccc2c(c1)/C(=C/c1[nH]cc3c1CCNC3=O)C(=O)N2 | > 20000 nM
NS(=O)(=O)c1ccc2c(c1)/C(=C/c1[nH]cc3c1CCOC3=O)C(=O)N2 | > 20000 nM
O=C1Nc2ccc(Br)cc2/C1=C/c1[nH]cc2c1CCNC2=O | > 20000 nM
O=C1Nc2ccc(-c3ccccc3)cc2/C1=C/c1[nH]cc2c1CCNC2=O | > 20000 nM
O=C1Nc2cc(Cl)ccc2/C1=C/c1[nH]cc2c1CCOC2=O | > 20000 nM
COc1ccc2c(c1)/C(=C/c1[nH]cc3c1CCNC3=O)C(=O)N2 | > 20000 nM
COc1cccc(-c2ccc3c(c2)NC(=O)/C3=C\c2[nH]cc3c2CCOC3=O)c1 | > 20000 nM
COc1ccccc1-c1ccc2c(c1)NC(=O)/C2=C\c1[nH]cc2c1CCOC2=O | > 20000 nM
O=C1Nc2cc(-c3ccccc3)ccc2/C1=C/c1[nH]cc2c1CCOC2=O | > 20000 nM
O=C1Nc2ccc(S(=O)(=O)N3CCc4cc(Br)ccc43)cc2/C1=C/c1[nH]cc2c1CCOC2=O | > 20000 nM
O=C1Nc2cc(Br)ccc2/C1=C/c1[nH]cc2c1CCOC2=O | > 20000 nM
O=C1Nc2ccc(Br)cc2/C1=C/c1[nH]cc2c1CCOC2=O | > 20000 nM
O=C1Nc2cc(-c3cccnc3)ccc2/C1=C/c1[nH]cc2c1CCOC2=O | > 20000 nM

Compound | IC50
O=C1Nc2ccc(C(=O)N3CCCC3)cc2/C1=C/c1[nH]cc2c1CCNC2=O | > 20000 nM
O=C1Nc2ccc(Cl)cc2/C1=C/c1[nH]cc2c1CCOC2=O | > 20000 nM
O=C1Nc2ccc(S(=O)(=O)N3CCc4ccccc4C3)cc2/C1=C/c1[nH]cc2c1CCOC2=O | > 20000 nM
O=C1Nc2cc(F)ccc2/C1=C/c1[nH]cc2c1CCOC2=O | > 20000 nM
Cc1c(Cl)ccc2c1/C(=C/c1[nH]cc3c1CCOC3=O)C(=O)N2 | > 20000 nM
COc1ccc2c(c1)/C(=C/c1[nH]cc3c1CCOC3=O)C(=O)N2 | > 20000 nM
CC(=O)Nc1ccc2c(c1)NC(=O)/C2=C\c1[nH]cc2c1CCOC2=O | > 20000 nM
CN(C)S(=O)(=O)c1ccc2c(c1)/C(=C/c1[nH]cc3c1CCOC3=O)C(=O)N2 | > 20000 nM
CNS(=O)(=O)c1ccc2c(c1C)/C(=C/c1[nH]cc3c1CCOC3=O)C(=O)N2 | > 20000 nM
O=C1Nc2cc(-c3ccc(F)cc3)ccc2/C1=C/c1[nH]cc2c1CCOC2=O | > 20000 nM
O=C1Nc2cccc(CCO)c2/C1=C/c1[nH]cc2c1CCOC2=O | > 20000 nM
O=C1Nc2ccc3c(c2/C1=C/c1[nH]cc2c1CCOC2=O)CCOS3(=O)=O | > 20000 nM
O=C1Nc2ccc(S(=O)(=O)Nc3cccc(Cl)c3)cc2/C1=C/c1[nH]cc2c1CCOC2=O | > 20000 nM
NS(=O)(=O)c1ccc2c(c1)/C(=C/c1[nH]cc3c1CCNC3=O)C(=O)N2 | > 20000 nM
O=C1Nc2ccc(-c3cccc(C(=O)O)c3)cc2/C1=C/c1[nH]cc2c1CCOC2=O | > 20000 nM
CNS(=O)(=O)c1ccc2c(c1)/C(=C/c1[nH]cc3c1CCNC3=O)C(=O)N2 | > 20000 nM
O=C1Nc2cccc(CCO)c2/C1=C/c1[nH]cc2c1CCNC2=O | > 20000 nM
O=C1Nc2ccc(-c3ccccc3)cc2/C1=C/c1[nH]cc2c1CCOC2=O | > 20000 nM
O=C1Nc2ccc(C(=O)N3CCOCC3)cc2/C1=C/c1[nH]cc2c1CCNC2=O | > 20000 nM
O=C1Nc2cc(Br)ccc2/C1=C/c1[nH]cc2c1CCNC2=O | > 20000 nM
CC(C)NS(=O)(=O)c1ccc2c(c1)/C(=C/c1[nH]cc3c1CCOC3=O)C(=O)N2 | > 20000 nM
COc1ccc(-c2ccc3c(c2)NC(=O)/C3=C\c2[nH]cc3c2CCOC3=O)cc1 | > 20000 nM
Cc1cccc2c1/C(=C/c1[nH]cc3c1CCOC3=O)C(=O)N2 | > 20000 nM
O=C1Nc2cc(C(=O)O)ccc2/C1=C/c1[nH]cc2c1CCOC2=O | > 20000 nM
O=C1Nc2ccc(S(=O)(=O)N3CCc4ccccc43)cc2/C1=C/c1[nH]cc2c1CCOC2=O | > 20000 nM
